Measurements as given in patent US20220202739A1, “ENDOCANNABINOID MIMETIC AND ANTI-INFLAMMATORY COMPOUND CONTAINING COMPOSITIONS, METHODS OF PREPARATION AND USES THEREOF” (priority 2019, published 2022).

How the values were obtained:
TRPA1 = experiment: Gene expression custom microarray, human skin keratinocytes (Example 2): TRPA1; type: cell-based; details: 10 uM, 24 hr
Procedure: (§1) Cell cultures: A human skin keratinocyte cell culture (or cultures) is obtained through the ThermoFisher Scientific (Waltham, Mass.) or Promocell GmbH (Heidelberg, Germany). The initial culture was selected from one of the following, C055C, 3C0647, or
(§2) C12003. The cell lines were derived from donors as follows: C055C: Single donor adult 3C0647: Single donor adult, lightly pigmented C12003: Single donor adult
(§3) Culture media: Cells were grown in ready to use Keratinocyte Growth Medium 2 from Promocell GmbH (Heidelberg, Germany) containing basal media supplemented with Bovine Pituitary Extract 0.004 ml/ml, Epidermal Growth Factor (recombinant human) 0.125 ng/ml, Insulin (recombinant human) 5 μg/ml, Hydrocortisone 0.33 μg/ml, Epinephrine 0.39 μg/ml, Transferrin (recombinant human) 10 μg/ml, and CaCl2 0.06 mM. […] All cultures were incubated at 37° C. with 5% CO2 in a humidified chamber.
(§4) Experimental phase: The experimental phase was carried out in accordance with the protocol set forth in the experimental phase section of Example 1.
(§5) The genes tested: Tested genes were the same as tested in Example 1.
(§6) Performance of custom microarray: Performance of custom microarray was carried out in accordance with the protocol set forth in the performance of custom microarray section of Example 1. […]

TRPM8 = experiment: Gene expression custom microarray, human skin keratinocytes (Example 2): TRPM8; type: cell-based; details: 10 uM, 24 hr
Procedure: as §1, §2, §3, §4, §5, §6

CNR2 = details: human skin keratinocytes, 10 uM, 24 hr
Procedure: as §1, §2, §3, §4, §5, §6

CNR1 = details: human skin keratinocytes, 10 uM, 24 hr
Procedure: as §1, §2, §3, §4, §5, §6

IL1A = experiment: Gene expression custom microarray, human skin keratinocytes (Example 2): IL1A; type: cell-based; details: 10 uM, 24 hr
Procedure: as §1, §2, §3, §4, §5, §6

TRPV1 [1] = experiment: Gene expression custom microarray, human skin keratinocytes (Example 2): TRPV1; type: cell-based; details: 10 uM, 24 hr
Procedure: as §1, §2, §3, §4, §5, §6

MAGL = experiment: Gene expression custom microarray, human skin keratinocytes (Example 2): MAGL; type: cell-based; details: 10 uM, 24 hr
Procedure: as §1, §2, §3, §4, §5, §6

PTGS1 = experiment: Gene expression custom microarray, human skin keratinocytes (Example 2): PTGS1; type: cell-based; details: 10 uM, 24 hr
Procedure: as §1, §2, §3, §4, §5, §6

FAAH = experiment: Gene expression custom microarray, human skin keratinocytes (Example 2): FAAH; type: cell-based; details: 10 uM, 24 hr
Procedure: as §1, §2, §3, §4, §5, §6

NFKB1 = experiment: Gene expression custom microarray, human skin keratinocytes (Example 2): NFKB1; type: cell-based; details: 10 uM, 24 hr
Procedure: as §1, §2, §3, §4, §5, §6

PPARG = experiment: Gene expression custom microarray, human skin keratinocytes (Example 2): PPARG; type: cell-based; details: 10 uM, 24 hr
Procedure: as §1, §2, §3, §4, §5, §6

TRPV1 [2] = experiment: Gene expression custom microarray, human skin fibroblasts (Example 1): TRPV1; type: cell-based; details: 10 uM, 24 hr
Text: Cell cultures: A human skin fibroblast cell culture (or cultures) was obtained through the Coriell Cell Repository from the National Institute on Aging Cell Repository (Camden, N.J.), or Promocell GmbH (Heidelberg, Germany). The initial culture was selected from the following cell lines: AG13066, AG11557, AG11796 or GM03651E. The cell lines were derived from donors as follows:
Experimental phase: When the appropriate quantity of cells had been grown, they were detached as described above, but at the final step were seeded into each well of one or more 6 well dishes. Each well received 2 ml of the cell suspension so they were seeded equally. The dishes were returned to the incubator until 85-95% confluency was reached.
It is at this stage that all wells were rinsed in PBS after aspirating the growth media. The compound(s) to be tested were previously mixed into a suitable solvent (e.g., DMSO or ethanol) that can be diluted to the desired concentration of test compound (10 μl) in the culture wells without exceeding maximum solvent concentrations and adversely effecting cell viability, and mixed with basal media. NOTE: Standard maximum levels of solvent are 0.1% for DMSO and 0.5% for ETOH. The concentration of each test compound is found in Tables 1 & 2.
Every 2 wells on the 6 well plate served as a biological replicate for the purposes of RNA isolation and genetic expression evaluations making each 6 well dish an n=3 for the test compound(s) contained in the media. Negative control plates (no test compound(s) and only basal media) were also generated. The plates were returned to the incubator for 24 hrs.
At the end of the 24 hr time period, the plates were removed from the incubator, the test media aspirated, and the cells rinsed with PBS. RNA isolation is performed using the BioRad Aurum Total RNA Mini Kit (Hercules, Calif.) per manufacturer's protocol; which is described, in brief, below: • Add 350 μl of lysis buffer to each well. Pipet multiple times to ensure thorough lysis. Add lysed cells to the collection tube. • Add 350 μl of 70% ETOH to the collection tube and mix thoroughly. • Pipet the generated lysate onto the spin column placed in a new 2 ml tube. Centrifuge for 30 sec between 8,000 and 10,000 g. • Place the spin column containing the now bound RNA, in a new 2 ml tube. Add 700 μl of low stringency wash solution to the spin column. Centrifuge for 30 sec between 8,000 and 10,000 g. […] Allow 1 minute for saturation of the membrane and then centrifuge for 2 minutes to complete the RNA elution. • Quantify the quantity of RNA and store at −20 C° until use (no more than 1 month) […]

Row | SMILES | TRPA1↑ gene expression, fold increase or decrease vs untreated cells (TRPA1) | TRPM8↑ gene expression, fold increase or decrease vs untreated cells (TRPM8) | CNR2↑ gene expression, fold increase or decrease vs untreated cells (CNR2) | CNR1↑ gene expression, fold increase or decrease vs untreated cells (CNR1) | IL1A↓ gene expression, fold increase or decrease vs untreated cells (IL1A) | TRPV1↑ gene expression, fold increase or decrease vs untreated cells (TRPV1 [1]) | MAGL↓ gene expression, fold increase or decrease vs untreated cells (MAGL) | PTGS1↓ gene expression, fold increase or decrease vs untreated cells (PTGS1) | FAAH↓ gene expression, fold increase or decrease vs untreated cells (FAAH) | NFKB1↓ gene expression, fold increase or decrease vs untreated cells (NFKB1) | PPARG↑ gene expression, fold increase or decrease vs untreated cells (PPARG) | TRPV1↑ gene expression, fold increase or decrease vs untreated cells (TRPV1 [2])
1 | C=C(C)[C@@H]1CCC(C)=C[C@H]1c1c(O)cc(CCCCC)cc1O [CBD, cannabidiol, reference compound] | −1.7 fold | 2.5 fold | 0 fold | 2.6 fold | −1.8 fold | 2.2 fold | −2.3 fold | 2.3 fold | −3.1 fold | −1.3 fold | −4.7 fold | 
2 | CCCCCCCCCCCCCCCC(=O)NCCO [N-palmitoylethanolamide] |  |  |  |  |  |  |  |  |  |  |  | −3.2 fold
